{"source": "patent US20200253211A1", "about": "“PHOTODYNAMIC INHIBITION OF MICROBIAL PATHOGENS IN PLANTS” (SUNCOR ENERGY INC, priority 2017, published 2020)", "type_in_all_cases": "cell-based", "key": {"[1]": {"test_system": "Alternaria solani mycelia", "experiment": "Photodynamic inhibition of Alternaria solani mycelia, percentage of dead samples after 7 days on agar", "conditions": "Table 5", "method": "(§1) In the experiments, Alternaria solani mycelia were grown in liquid medium for 24 hours. Small spheres of the mycelia (average diameter 2 mm) were incubated for 100 minutes with 100 μM of Mg-Chlorophyllin with 0 to 5 mM of Disodium-EDTA. Samples were illuminated with 395 nm (fluence 106.6 J cm^−2) for 120 mins and the radial growth of mycelial patches after 7 days on agar medium was measured. A sample was considered dead, if there was no growth observable after 7 days on agar plates.\nas §1, with “Chlorin E6” for “100 μM of Mg-Chlorophyllin”, “or without” for “0 to”, “disodium-EDTA.” for “Disodium-EDTA.”\nThe protocol for the PDI of A. solani was as follows (for Experiment 2 and 5): • Grow A. solani on tomato-agar for some days. • Transfer parts of the growing mycelium form the edge of the A. solani (no conidia) to liquid tomato medium. • Incubate overnight at 26° C. under constant agitation. • Transfer the grown mycelia (spheres of mycelia, approximately 2 mm in diameter) to 24 well plates. • Add 500 microlitres of the PS to the well (PBS for the Co and light only controls). • Incubate under agitation for 100 minutes. • Illuminate under agitation for 120 minutes. • Transfer the treated mycelia to tomato-agar plates and incubate for one week at room temperature. • Evaluate by counting of dead samples."}, "Sclerotinia homoeocarpa [2]": {"test_system": "Sclerotinia homoeocarpa", "experiment": "Radial growth of dollar spot fungus after treatment of plugs in PBS (24 well plates), dark vs light", "method": "In this example, control of dollar spot fungus (Sclerotinia homoeocarpa) with chlorins combined with a chelating agent was assessed. Treatments were prepared in Phosphate Buffered Saline (PBS) in 24 well plates (in duplicates for light vs. dark incubation) at desired concentrations. Then, a 5 mm diameter plug of a Sclerotinia homoeocarpa isolate (3 isolates total tested) was inoculated into the PBS and incubated at 21° C. in the dark for 2 hours. After 2 hours, one of the 24 well plates (with isolates in triplicate) is left in the dark and one 24 well plate is placed under illumination for 1 hour (all at 21° C.). Following illumination, fungal plugs are removed from PBS, blotted dry on sterile filter paper and transferred to non-amended Potato Dextrose Agar (PDA). Radial growth of the fungus is monitored daily until the growth of S. homoeocarpa reaches the edge of the Petri-dish. Illumination is provided by LED lights emitting about 1000 μmol/m^2/s photosynthetically active radiation (PAR). In this example, control of dollar spot fungus (Sclerotinia homoeocarpa) with Zinc Protoporphyrin IX (Zn-PPIX) combined with EDTA was assessed. Treatments were prepared in Phosphate Buffered Saline (PBS) in 24 well plates (in duplicates for light vs. dark incubation) at desired concentrations. Then, a 5 mm diameter plug of a Sclerotinia homoeocarpa isolate (3 isolates total tested) was inoculated into the PBS and incubated at 21° C. in the dark for 2 hours. After 2 hours, one of the 24 well plates (with isolates in triplicate) is left in the dark and one 24 well plate is placed under illumination for 1 hour (all at 21° C.). Following illumination, fungal plugs are removed from PBS, blotted dry on sterile filter paper and transferred to non-amended Potato Dextrose Agar (PDA). Radial growth of the fungus is monitored daily until the growth of S. homoeocarpa reaches the edge of the Petri-dish. Illumination is provided by LED lights emitting about 1000 μmol/m^2/s photosynthetically active radiation (PAR). In this example, control of dollar spot fungus (Sclerotinia homoeocarpa) with bacteriochlorin combined with EDTA was assessed. Treatments were prepared in Phosphate Buffered Saline (PBS) in 24 well plates (in duplicates for light vs. dark incubation) at desired concentrations. Then, a 5 mm diameter plug of a Sclerotinia homoeocarpa isolate (3 isolates total tested) was inoculated into the PBS and incubated at 21° C. in the dark for 2 hours. After 2 hours, one of the 24 well plates (with isolates in triplicate) is left in the dark and one 24 well plate is placed under illumination for 1 hour (all at 21° C.). Following illumination, fungal plugs are removed from PBS, blotted dry on sterile filter paper and transferred to non-amended Potato Dextrose Agar (PDA). Radial growth of the fungus is monitored daily until the growth of S. homoeocarpa reaches the edge of the Petri-dish. Illumination is provided by LED lights emitting about 1000 μmol/m^2/s photosynthetically active radiation (PAR). In this example, control of dollar spot fungus (Sclerotinia homoeocarpa) with Aluminum chlorin e6 combined with EDTA was assessed. Treatments were prepared in Phosphate Buffered Saline (PBS) in 24 well plates (in duplicates for light vs. dark incubation) at desired concentrations. Then, a 5 mm diameter plug of a Sclerotinia homoeocarpa isolate (3 isolates total tested) was inoculated into the PBS and incubated at 21° C. in the dark for 2 hours. After 2 hours, one of the 24 well plates (with isolates in triplicate) is left in the dark and one 24 well plate is placed under illumination for 1 hour (all at 21° C.). Following illumination, fungal plugs are removed from PBS, blotted dry on sterile filter paper and transferred to non-amended Potato Dextrose Agar (PDA). Radial growth of the fungus is monitored daily until the growth of S. homoeocarpa reaches the edge of the Petri-dish. Illumination is provided by LED lights emitting about 1000 μmol/m^2/s photosynthetically active radiation (PAR). […]"}, "Botrytis cinerea mycelia": {"test_system": "Botrytis cinerea mycelia", "experiment": "Photodynamic inhibition of Botrytis cinerea mycelia, percentage of dead samples after 7 days on agar", "conditions": "Table 4; EDTA-Ca 5 mM alone; with light", "method": "as §1, with “Botrytis cinerea” for “Alternaria solani”, “48” for “24”, “with” for “with 100 μM of”, “or without” for “0 to”, “mM” for “mM of”, “minutes” for “mins”\nas §1, with “Botrytis cinerea” for “Alternaria solani”, “48” for “24”, “with” for “with 100 μM of”, “or without” for “0 to”, “EDTA (calcium or disodium).” for “of Disodium-EDTA.”, “min” for “mins”\nas §1, with “Botrytis cinerea” for “Alternaria solani”, “48” for “24”, “with” for “with 100 μM of”, “or without Baypure DS100” for “0 to 5 mM of Disodium-EDTA.”, “min” for “mins”\nThe protocol for the PDI of B. cinerea was as follows (for experiments 3 and 4 described above): • Grow B. cinerea on malt-peptone-agar for some days. • Transfer spores of B. cinerea to liquid malt-peptone medium. • Incubate for 2-3 days at 26° C. under constant agitation. • Transfer the grown mycelia (spheres of mycelia, approximately 2 mm diameter) to 24 well plates. • Add 500 μl of the PS to the well. • Incubate under agitation for 100 minutes in the dark. • Illuminate under agitation for 120 minutes. • Transfer the treated mycelia to malt-peptone-agar plates and incubate for one week at room temperature. • Evaluate by counting of dead samples."}, "Sclerotinia homoeocarpa [3]": {"test_system": "Sclerotinia homoeocarpa", "experiment": "Radial growth of dollar spot fungus on amended Potato Dextrose Agar, dark vs light", "conditions": "for inhibition at 500 µM / inhibition at 1000 µM / inhibition at 2000 µM: Clarireedia homoeocarpa"}, "E. Coli K-12": {"test_system": "E. Coli K-12", "experiment": "E. Coli assay under LED lamps, colony count", "conditions": "Table 11; light; 5 mM Baypure CX", "method": "Regarding the E. Coli assay tests in the above examples, the following procedure was used: • 1. E. Coli K-12 inoculated in 5 mL TSB and placed in a shaking incubator overnight. • 2. Dilute culture in 500 mL PBS (˜10̂8 CFU/mL) and placed in shaking incubator for 30 minutes at […]. • 3.15 mL samples created using 12 mL culture and a mixture of PBS buffer and sample compounds. • 4. Placed under LED lamps for 2 hours (40 W/m^2). • 5. Samples diluted to 10^−4 and culture controls diluted to 10^−5 for plating through series dilutions. • 6. 0.1 mL plated of each sample in triplicates on TSA base (10^−3 and 10^−4 for samples. 10^−4 and 10^−5 for controls). • 7. Incubated overnight at 37° C. • 8. Colonies counted next morning and recorded."}, "[4]": {"conditions": "Table 9A, dark, Ca-EDTA 100 μM, no curcumin"}, "[5]": {"conditions": "Table 9B, light, Ca-EDTA 100 μm, no curcumin"}}}
{"smiles": "C=Cc1c(C)c2cc3nc(c(CC(=O)O)c4[nH]c(cc5nc(cc1[nH]2)C(C)=C5CC)c(C)c4C(=O)O)[C@@H](CCC(=O)O)[C@@H]3C", "note": "[Chlorin E6]", "values": [{"measurement": "dead %", "setting": "[1]; light, 1 μM Chlorin E6", "value": 0.0, "unit": "%"}, {"measurement": "dead %", "setting": "[1]; light, 10 μM Chlorin E6", "value": 8.3, "unit": "%"}, {"measurement": "dead %", "setting": "[1]; light, 100 μM Chlorin E6", "value": 0, "unit": "%"}, {"measurement": "dead %", "setting": "[1]; no light, 100 μM Chlorin E6", "value": 0.0, "unit": "%"}, {"measurement": "% Inhibition", "setting": "Sclerotinia homoeocarpa [2]; Table 18A, dark, rate 10 μM", "value": "−1.49", "unit": "%"}, {"measurement": "Mean Radial Growth", "setting": "Sclerotinia homoeocarpa [2]; Table 18A, dark, rate 10 μM", "value": 11.33, "unit": "mm"}, {"measurement": "% Inhibition", "setting": "Sclerotinia homoeocarpa [2]; Table 18A, dark, rate 100 μM", "value": 3.48, "unit": "%"}, {"measurement": "Mean Radial Growth", "setting": "Sclerotinia homoeocarpa [2]; Table 18A, dark, rate 100 μM", "value": 10.78, "unit": "mm"}, {"measurement": "% Inhibition", "setting": "Sclerotinia homoeocarpa [2]; Table 18B, light, rate 10 μM", "value": 24.12, "unit": "%"}, {"measurement": "Mean Radial Growth", "setting": "Sclerotinia homoeocarpa [2]; Table 18B, light, rate 10 μM", "value": 8.39, "unit": "mm"}, {"measurement": "% Inhibition", "setting": "Sclerotinia homoeocarpa [2]; Table 18B, light, rate 100 μM", "value": 11.06, "unit": "%"}, {"measurement": "Mean Radial Growth", "setting": "Sclerotinia homoeocarpa [2]; Table 18B, light, rate 100 μM", "value": 9.83, "unit": "mm"}]}
{"smiles": "O=C([O-])CN(CCN(CC(=O)[O-])CC(=O)[O-])CC(=O)[O-].[Ca+2].[Na+].[Na+]", "note": "[EDTA-Ca, calcium disodium EDTA]", "values": [{"measurement": "dead %", "setting": "Botrytis cinerea mycelia", "value": 0, "unit": "%"}, {"measurement": "% Inhibition", "setting": "Sclerotinia homoeocarpa [3]; [4]", "value": 80.8, "unit": "%"}, {"measurement": "Mean Radial Growth", "setting": "Sclerotinia homoeocarpa [3]; [4]", "value": 2.8, "unit": "mm"}, {"measurement": "% Inhibition", "setting": "Sclerotinia homoeocarpa [3]; [5]", "value": 76.5, "unit": "%"}, {"measurement": "Mean Radial Growth", "setting": "Sclerotinia homoeocarpa [3]; [5]", "value": 3.2, "unit": "mm"}]}
{"smiles": "O=C(O)CC(NC(CC(=O)O)C(=O)O)C(=O)O", "note": "(centres unmarked) [Baypure CX (IDS), tetrasodium iminodisuccinate]", "values": [{"measurement": "inhibition at 500 µM", "setting": "Sclerotinia homoeocarpa [3]; Table 14A, dark, rate 500 μM", "value": 6.2, "unit": "%"}, {"measurement": "inhibition at 1000 µM", "setting": "Sclerotinia homoeocarpa [3]; Table 14A, dark, rate 1000 μM", "value": 15.2, "unit": "%"}, {"measurement": "inhibition at 2000 µM", "setting": "Sclerotinia homoeocarpa [3]; Table 14A, dark, rate 2000 μM", "value": 31.3, "unit": "%"}, {"measurement": "inhibition at 500 µM", "setting": "Sclerotinia homoeocarpa [3]; Table 14B, light, rate 500 μM", "value": 8.6, "unit": "%"}, {"measurement": "inhibition at 1000 µM", "setting": "Sclerotinia homoeocarpa [3]; Table 14B, light, rate 1000 μM", "value": 18, "unit": "%"}, {"measurement": "inhibition at 2000 µM", "setting": "Sclerotinia homoeocarpa [3]; Table 14B, light, rate 2000 μM", "value": 30.9, "unit": "%"}, {"measurement": "Mean Radial Growth", "setting": "Sclerotinia homoeocarpa [3]; Table 14A, dark, rate 500 μM", "value": 12.7, "unit": "mm"}, {"measurement": "Mean Radial Growth", "setting": "Sclerotinia homoeocarpa [3]; Table 14A, dark, rate 1000 μM", "value": 11.4, "unit": "mm"}, {"measurement": "Mean Radial Growth", "setting": "Sclerotinia homoeocarpa [3]; Table 14A, dark, rate 2000 μM", "value": 9.3, "unit": "mm"}, {"measurement": "Mean Radial Growth", "setting": "Sclerotinia homoeocarpa [3]; Table 14B, light, rate 500 μM", "value": 11.8, "unit": "mm"}, {"measurement": "Mean Radial Growth", "setting": "Sclerotinia homoeocarpa [3]; Table 14B, light, rate 1000 μM", "value": 10.6, "unit": "mm"}, {"measurement": "Mean Radial Growth", "setting": "Sclerotinia homoeocarpa [3]; Table 14B, light, rate 2000 μM", "value": 8.9, "unit": "mm"}, {"measurement": "% Inactivation", "setting": "E. Coli K-12", "value": 67.8, "unit": "%"}, {"measurement": "CFU/mL", "setting": "E. Coli K-12", "value": "2.09E+06", "unit": "CFU/mL"}, {"measurement": "LogCFU/mL", "setting": "E. Coli K-12", "value": 6.32, "unit": "LogCFU/mL"}]}
